Assay results: paper PMC7236921, “γ-Secretase modulators exhibit selectivity for modulation of APP cleavage but inverse γ-secretase modulators do not” (Alzheimer's Research & Therapy, 2020)

Experiments:
[1] = target: T1, PS1 γ-secretase (PS1 membrane, PSEN1+/+ PSEN2−/−) (Homo sapiens, UniProt P49768); assay: cell-free cleavage of rC100sub, IP-MS of Abeta; type: biochemical; details: inverse modulator (iGSM), 100 μM; substrate rC100sub (APP C100); pH 6.5, 37 °C, 2 h
T1 construct: endogenous complex in CHAPSO-solubilized membrane of HEK 293T cells expressing only PS1; with Nicastrin; Gamma-secretase subunit APH-1A; Gamma-secretase subunit PEN-2

[2] = target: T2, PS2 γ-secretase (PS2 membrane, PSEN1−/− PSEN2+/+) (Homo sapiens, UniProt P49810); assay: cell-free cleavage of rC100sub, IP-MS of Abeta; type: biochemical; details: inverse modulator (iGSM), 100 μM; substrate rC100sub (APP C100); pH 6.5, 37 °C, 2 h
T2 construct: endogenous complex in CHAPSO-solubilized membrane of HEK 293T cells expressing only PS2; with Nicastrin; Gamma-secretase subunit APH-1A; Gamma-secretase subunit PEN-2

For `CC(C)OC(=O)C(C)(C)Oc1ccc(C(=O)c2ccc(Cl)cc2)cc1` [fenofibrate], the “percentage change of Aβ38” value [1] was “the iGSM treatment resulted in only slight changes in the peptides produced” and the “percentage change of Aβ38” value [2] was “iGSMs had an enhanced response when compared to WT”.
